These results are taken from US7494986B2, “Cycloalkylamine derivatives as NK-1/SSRI antagonists” (Bristol-Myers Squibb Company, priority 2004, dated 2009).

For assay [1], the target named is T1, neurokinin-1 (NK-1) receptor (Homo sapiens, UniProt P25103).
T1 construct: endogenously expresses the neurokinin-1 (NK-1) receptor; endogenous in cells; host or cells: U373 human glioblastoma-astrocytoma cells (membranes)
The assay is described as follows: NK-1 binding assay, [125I] Substance P competition on U373 cell membranes. The following applies: Bolton Hunter labeled [125I] Substance P displacement. The protocol: U373 cells, a human glioblastoma-astrocytoma cell line that endogenously expresses the neurokinin-1 (NK-1) receptor, were grown in a monolayer culture at 37° C. in 5% CO2 and fed with Minimum Essential Medium (MEM) supplemented with 10% fetal bovine serum. Membranes were prepared as follows: Cells were washed twice with ice-cold phosphate-buffered saline (pH 7.4) and then incubated for 5 to 10 minutes with ice-cold 10 mM Tris buffer (pH 7.4) containing 5 mM EDTA. Cells were removed from plates, homogenized, and centrifuged at 32,000×g for 20 minutes. The resulting supernatant was discarded, and the pellet resuspended by homogenization in 50 mM Tris buffer (pH 7.4) containing 1 mM EDTA and centrifuged at 32,000×g for 20 minutes. […]
On the day of an experiment the membrane preparation was thawed, homogenized and diluted with NK-1 binding assay buffer to the appropriate concentration. […] The amount of radioligand bound in the presence and absence of competitor was analyzed by plotting (−)log drug concentration versus the amount of radioligand specifically bound. […] Ki values were calculated using the method of Cheng and Prusoff [Cheng, Y.-C. and Prusoff, W. H., Biochemical Pharmacology, Vol. 22, pp. 3099-3108, Pergamon Press (1973)].

Assay [2] deals with T2, human serotonin transporters (Homo sapiens, UniProt P31645).
T2 construct: expressed in transfected cells
T2 sequence (P31645 whole entry): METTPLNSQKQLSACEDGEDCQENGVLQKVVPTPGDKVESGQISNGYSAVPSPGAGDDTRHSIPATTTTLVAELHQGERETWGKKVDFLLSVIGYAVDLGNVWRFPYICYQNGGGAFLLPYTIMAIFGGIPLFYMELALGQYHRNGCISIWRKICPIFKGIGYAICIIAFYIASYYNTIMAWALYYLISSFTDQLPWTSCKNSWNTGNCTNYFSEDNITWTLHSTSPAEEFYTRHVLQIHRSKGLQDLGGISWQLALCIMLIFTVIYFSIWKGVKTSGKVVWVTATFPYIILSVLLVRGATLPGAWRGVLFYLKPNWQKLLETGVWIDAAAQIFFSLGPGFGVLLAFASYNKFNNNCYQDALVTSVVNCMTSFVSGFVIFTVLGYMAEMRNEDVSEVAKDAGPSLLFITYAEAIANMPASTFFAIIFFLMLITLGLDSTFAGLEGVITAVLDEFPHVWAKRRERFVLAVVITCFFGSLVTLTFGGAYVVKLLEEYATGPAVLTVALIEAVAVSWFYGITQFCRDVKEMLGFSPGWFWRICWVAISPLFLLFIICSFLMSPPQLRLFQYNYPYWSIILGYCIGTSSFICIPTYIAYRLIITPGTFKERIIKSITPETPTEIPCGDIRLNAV
As to the kind of experiment: Serotonin transporter binding assay, [3H]-citalopram competition on HEK-hSERT cell membranes. The following applies: 1 nM [3H]-citalopram displacement, read-out: SERT IC50. The protocol: HEK-293 cells that stably express human serotonin transporters (HEK-hSERT cells) were grown at 37° C. in 5% CO2 as a monolayer in medium consisting of EMEM supplemented with 10% fetal bovine serum and G418 sulfate (500 μg/ml). To prepare membranes for radioligand binding experiments, cells were rinsed twice with phosphate-buffered saline (138 mM NaCl, 4.1 mM KCl, 5.1 mM Na2PO4, 1.5 mM […], 11.1 mM glucose, pH 7.4). Cells were transferred from plates to polypropylene tubes (16×100 mm), centrifuged at 1,200×g for 5 min and were frozen at −80° C. until assay. Following centrifugation, pellets were resuspended by homogenization in buffer consisting of 50 mM Tris (pH 7.7 at 25° C.), 120 mM NaCl and 5 mM KCl and then centrifuged at 32,000×g for 10 min. Following centrifugation, supernatants were discarded and pellets were resuspended in buffer consisting of 50 mM Tris (pH 7.4 at 25° C.), 150 mM NaCl and 5 mM KCl. […] Amount of radioligand bound in the presence and absence of competitor was analyzed by plotting (−)log drug concentration versus the amount of radioligand specifically bound. […] Ki values were calculated using the method of Cheng and Prusoff Cheng and Prusoff [Cheng, Y.-C. and Prusoff, W. H., Biochemical Pharmacology, Vol. 22, pp. 3099-3108, Pergamon Press (1973)].

T1 sequence (P25103 whole entry): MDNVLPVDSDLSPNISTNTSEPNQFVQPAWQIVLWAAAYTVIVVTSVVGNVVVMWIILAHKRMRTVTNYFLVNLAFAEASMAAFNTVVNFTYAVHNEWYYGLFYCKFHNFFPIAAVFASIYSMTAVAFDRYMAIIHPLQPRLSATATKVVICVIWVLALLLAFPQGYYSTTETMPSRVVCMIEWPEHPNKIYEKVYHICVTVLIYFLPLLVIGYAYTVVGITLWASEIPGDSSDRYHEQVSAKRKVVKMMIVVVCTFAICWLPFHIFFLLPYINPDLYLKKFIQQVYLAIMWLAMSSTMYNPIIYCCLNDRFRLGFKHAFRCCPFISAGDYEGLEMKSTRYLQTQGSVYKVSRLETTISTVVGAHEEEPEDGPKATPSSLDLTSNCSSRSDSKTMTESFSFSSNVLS

A word on the IC50: it is the point on the concentration scale where inhibition reaches its midpoint. As to `FC(F)(F)c1cc(COCC2(c3ccccc3)CCCNCCC2)cc(C(F)(F)F)c1` [Example 2, 5-((3,5-bis(trifluoromethyl)benzyloxy)methyl)-5-phenylazocane], the IC50 is less than 20 nM in assay [1] and 20 to 100 nM in assay [2].

Take `FC(F)(F)c1cc(COCC2(c3ccccc3)CCCCNCC2)cc(C(F)(F)F)c1` (stereo not shown) [Example 1, 4-((3,5-bis(trifluoromethyl)benzyloxy)methyl)-4-phenylazocane]: the values for the IC50 in assay [1] and in assay [2] were less than 20 nM and 20 to 100 nM, respectively.
